In ChEMBL document CHEMBL1201862, “PubChem BioAssay data set” (2004):
Activity calls are given as the source filed them.

Assays:
[1] = cells
[2] = viability of uninfected HEp-2 cells – cell-based, HTS, cytotoxicity control for RSV inhibitor project, dose response (AID 2410); format: functional; conditions: human respiratory syncytial virus
[3] = inhibition of ADAM10 peptide cleavage – biochemical, FRET peptide substrate, recombinant human ADAM10, selectivity assay for ADAM17 exosite inhibitor project, dose response (AID 743259);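 note: ADAM10 enzyme cleaving a FRET peptide substrate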
[4] = biological target: Disintegrin and metalloproteinase domain-containing protein 17 (Homo sapiens, UniProt P78536); assay: exosite inhibitors of ADAM17, dose response, biochemical (AID 743260)
[5] = biological target: Prothrombin (Homo sapiens, UniProt P00734); assay: Thrombin 1536 HTS Dose Response Confirmation. [Related pubchem assays: 1046 (Thrombin 1536 HTS; hits were confirmed in this assay)]; format: functional
[6] = biological target: T1, Heat shock factor protein 1 (Mus musculus, UniProt P38532); assay: decrease of HSF1-responsive luciferase luminescence – cell-based, NIH3T3, dose retest, confirmation (AID 2382); format: functional;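 note: NIH3T3 fibroblasts with HSF1-driven luciferase reporter stressed by proteasome inhibitor MG132; luminescence from HSF1-driven luciferase expression after 8 hours of MG132 stress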
T1 sequence (P38532 whole entry): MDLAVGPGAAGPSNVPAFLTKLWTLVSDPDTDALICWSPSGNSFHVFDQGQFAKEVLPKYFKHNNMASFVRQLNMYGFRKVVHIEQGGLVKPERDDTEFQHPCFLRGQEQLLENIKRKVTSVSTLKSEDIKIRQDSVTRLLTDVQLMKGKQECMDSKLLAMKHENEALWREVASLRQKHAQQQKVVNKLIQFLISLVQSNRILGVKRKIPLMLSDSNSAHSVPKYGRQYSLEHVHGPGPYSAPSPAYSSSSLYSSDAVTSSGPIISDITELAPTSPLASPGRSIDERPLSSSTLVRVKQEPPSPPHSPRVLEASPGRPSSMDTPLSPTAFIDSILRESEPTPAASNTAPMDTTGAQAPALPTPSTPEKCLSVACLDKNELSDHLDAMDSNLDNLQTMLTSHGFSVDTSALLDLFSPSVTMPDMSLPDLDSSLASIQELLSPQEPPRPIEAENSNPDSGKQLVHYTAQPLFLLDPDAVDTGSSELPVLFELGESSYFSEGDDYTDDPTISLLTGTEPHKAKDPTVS

[7] = tested on: H9c2; assay: cells; format: functional, cell-based; conditions: Rattus norvegicus, H9c2, Myocardium;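 note: confirmatory concentration-response retest of ultra-high-throughput screening hits for modulation of myocardial damage; cell death induced by hydrogen peroxide oxidative stress; compound pretreatment for 60 min then peroxide exposure for 2 h; potency is for protecting the cells against peroxide damage rather than for killing them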
[8] = blockers of bursicon-stimulated LGR2 cAMP reporter – cell-based, HEK293, CRE-luciferase reporter, cherry pick, set 2, dose response (AID 743343); format: functional;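 note: transfected cells were stimulated with diluted bursicon conditioned medium after compound addition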
[9] = A549 cell cytotoxicity, dose response, cytotoxicity control, plate reader, cherry-pick, antagonist series (AID 743412); format: functional, cell-based
[10] = blockade of melanocortin 4 receptor signaling – cell-based, plate reader, cherry pick, counter-screen for LGR2 antagonist project, dose response (AID 743444); format: functional;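 note: transfected HEK 293 cells stimulated with alpha-MSH peptide; potency of inhibitors of the alpha-MSH evoked signal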
[11] = Counterscreen for inhibitors of Trypanosoma brucei methionyl tRNA synthetase (MetRS): Luminescence-based cell-based high throughput dose response assay to identify compounds that are cytotoxic to Jurkat human T lymphocyte cells.; format: functional
[12] = biological target: T2, Methionyl-tRNA synthetase, putative (Trypanosoma brucei brucei, UniProt Q38C91); format: functional, Trypanosoma brucei brucei strain 927/4 GUTat10.1
T2 sequence (Q38C91 whole entry): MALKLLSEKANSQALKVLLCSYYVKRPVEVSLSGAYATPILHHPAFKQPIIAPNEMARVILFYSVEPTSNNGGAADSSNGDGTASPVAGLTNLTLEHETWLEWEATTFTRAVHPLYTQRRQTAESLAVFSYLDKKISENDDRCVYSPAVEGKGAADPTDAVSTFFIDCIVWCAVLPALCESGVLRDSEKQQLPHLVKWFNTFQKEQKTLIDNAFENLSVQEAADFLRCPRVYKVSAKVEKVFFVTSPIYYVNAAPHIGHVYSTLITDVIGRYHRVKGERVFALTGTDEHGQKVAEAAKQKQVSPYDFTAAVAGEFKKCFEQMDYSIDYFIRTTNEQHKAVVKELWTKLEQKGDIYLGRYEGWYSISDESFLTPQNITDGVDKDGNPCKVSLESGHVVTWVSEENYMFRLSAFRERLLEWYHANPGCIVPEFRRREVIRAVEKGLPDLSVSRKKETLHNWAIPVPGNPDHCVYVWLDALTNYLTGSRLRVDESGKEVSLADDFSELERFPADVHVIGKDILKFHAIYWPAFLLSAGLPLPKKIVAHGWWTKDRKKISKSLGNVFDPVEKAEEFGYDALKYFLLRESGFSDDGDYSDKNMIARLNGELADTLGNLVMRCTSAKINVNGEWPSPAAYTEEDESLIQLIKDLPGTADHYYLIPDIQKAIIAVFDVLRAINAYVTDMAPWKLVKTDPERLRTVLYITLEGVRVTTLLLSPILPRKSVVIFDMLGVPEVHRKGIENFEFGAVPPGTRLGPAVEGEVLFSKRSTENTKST

[13] = biological target: T2, Methionyl-tRNA synthetase, putative; format: functional, Trypanosoma brucei brucei strain 927/4 GUTat10.1; remark: listed apart in the source
[14] = biological target: Mu-type opioid receptor (Homo sapiens, UniProt P35372); assay: (§1) Counterscreen for agonists of heterodimerization of the mu 1 (OPRM1) and delta 1 (OPRD1) opioid receptors: Luminescence-based cell-based high throughput dose response assay to identify agonists of OPRM1 homodimerization.; format: functional
[15] = biological target: T3, Short transient receptor potential channel 4 (Mus musculus, UniProt Q9QUQ5); assay: calcium entry via TRPC4 opening agents – cell-based, HEK293 TRPC4/mu-opioid, Fluo-4 calcium, dose response (AID 434937); format: functional
T3 sequence (Q9QUQ5 whole entry): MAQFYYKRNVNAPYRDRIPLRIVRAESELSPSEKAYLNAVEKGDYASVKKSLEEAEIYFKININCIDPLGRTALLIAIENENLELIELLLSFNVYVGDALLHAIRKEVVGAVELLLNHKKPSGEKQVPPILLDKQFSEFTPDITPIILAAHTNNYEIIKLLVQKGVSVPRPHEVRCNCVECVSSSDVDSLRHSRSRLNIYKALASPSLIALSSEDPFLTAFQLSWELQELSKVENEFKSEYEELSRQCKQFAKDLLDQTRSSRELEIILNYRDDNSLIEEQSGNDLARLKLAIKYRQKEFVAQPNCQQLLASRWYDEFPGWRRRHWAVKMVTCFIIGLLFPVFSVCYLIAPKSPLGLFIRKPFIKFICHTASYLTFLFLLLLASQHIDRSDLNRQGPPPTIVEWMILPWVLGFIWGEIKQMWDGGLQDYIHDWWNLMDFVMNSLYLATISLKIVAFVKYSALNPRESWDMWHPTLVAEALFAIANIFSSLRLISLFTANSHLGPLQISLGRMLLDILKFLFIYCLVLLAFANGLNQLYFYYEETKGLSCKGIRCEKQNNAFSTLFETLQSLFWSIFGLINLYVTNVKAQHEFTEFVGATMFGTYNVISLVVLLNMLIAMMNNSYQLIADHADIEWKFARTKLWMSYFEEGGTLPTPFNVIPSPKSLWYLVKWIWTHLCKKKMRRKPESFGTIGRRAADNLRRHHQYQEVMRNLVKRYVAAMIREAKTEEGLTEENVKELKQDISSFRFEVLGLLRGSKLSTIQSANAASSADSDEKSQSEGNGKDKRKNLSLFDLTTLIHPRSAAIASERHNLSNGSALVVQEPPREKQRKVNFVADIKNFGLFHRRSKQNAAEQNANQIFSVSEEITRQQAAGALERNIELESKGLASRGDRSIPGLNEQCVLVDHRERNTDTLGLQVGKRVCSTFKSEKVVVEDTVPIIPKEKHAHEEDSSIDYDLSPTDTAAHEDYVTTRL

[16] = biological target: Delta-type opioid receptor (Homo sapiens, UniProt P41143); assay: as §1, with “of OPRD1” for “of OPRM1”, “homodimerization. [Related pubchem assays (depositor defined):AID504326, AID504355, AID504692, AID504904, AID504905]” for “homodimerization.”; format: functional
[17] = biological target: 5-hydroxytryptamine receptor 5A (Homo sapiens, UniProt P47898); assay: Counterscreen for agonists of OPRM1-OPRD1 heterodimerization: luminescence-based cell-based high throughput dose response assay to identify agonists of 5-hydroxytryptamine (serotonin) 5A receptor (HTR5A). [Related pubchem assays (depositor defined):AID504326, AID504355, AID504692, AID504904, AID504905]; format: functional
[18] = biological target: T4, Low molecular weight phosphotyrosine protein phosphatase (Homo sapiens, UniProt P24666); format: functional; conditions: read-out: IC50_Mean;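 note: Dose-response confirmation assay measuring inhibition of LMPTP enzyme activity by fluorescence intensity read-out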
T4 sequence (P24666 whole entry): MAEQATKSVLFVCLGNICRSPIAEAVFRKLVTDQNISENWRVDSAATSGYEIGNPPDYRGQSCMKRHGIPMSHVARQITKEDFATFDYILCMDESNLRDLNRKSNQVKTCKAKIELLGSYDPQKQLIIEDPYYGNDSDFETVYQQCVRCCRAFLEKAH

[19] = viability loss in THP-1 monocytes – THP-1 cells, cytotoxicity control for Vif-APOBEC3G degradation inhibitor project, dose response (AID 1117359); format: functional; conditions: THP-1
[20] = OVCAR8 cell viability loss – plate reader, dry powder samples, PAX8 project, dose response (AID 743197); format: functional, cell-based; conditions: OVCAR-8
[21] = biological target: Paired box protein Pax-8 (Homo sapiens, UniProt Q06710); assay: PAX8 transcriptional activity inhibition in RMG-I – RMG-I cells, luciferase, cherry-pick, dose response (AID 687027); format: functional, cell-based;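 note: luciferase reporter driven by Pax8 target thyroperoxidase promoter measured by SteadyGlo luminescence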
[22] = OVCAR-3 cell viability loss – plate reader, dry powder samples, PAX8 inhibitor project, dose response (AID 743044); format: functional, cell-based
[23] = biological target: Induced myeloid leukemia cell differentiation protein Mcl-1 (Homo sapiens, UniProt Q07820); format: functional
[24] = growth inhibition of yeast DHODH-expressing 3D7 parasites – SYBR Green, dry powder samples, dose response (AID 1159570); format: functional, cell-based;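 note: parasite growth measured after 72 hours of compound exposure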
[25] = toxicity to human HepG2 hepatoma cells – cell-based, plate reader, dry powder samples, cytotoxicity control, dose response (AID 1159569); format: functional;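 note: inhibitor potency with signal falling toward the positive control level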
[26] = Dd2 malaria parasite growth inhibition potency – SYBR Green, dry powder samples, dose response (AID 1159566); format: functional, cell-based;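 note: potency for growth inhibition with lower SYBR green DNA signal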
[27] = P. falciparum Dd2 growth inhibitors, dose response, SYBR Green, cherry-picked samples (AID 1159567); format: functional, cell-based
[28] = growth inhibition of PfATP4-mutant resistant parasites – NITD609-resistant line, SYBR Green, dry powder, dose response (AID 1159571); format: functional, cell-based;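 note: parasites synchronized at ring stage by sorbitol before testing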

Sequence of Disintegrin and metalloproteinase domain-containing protein 17 (P78536 whole entry, the tested form may be a part): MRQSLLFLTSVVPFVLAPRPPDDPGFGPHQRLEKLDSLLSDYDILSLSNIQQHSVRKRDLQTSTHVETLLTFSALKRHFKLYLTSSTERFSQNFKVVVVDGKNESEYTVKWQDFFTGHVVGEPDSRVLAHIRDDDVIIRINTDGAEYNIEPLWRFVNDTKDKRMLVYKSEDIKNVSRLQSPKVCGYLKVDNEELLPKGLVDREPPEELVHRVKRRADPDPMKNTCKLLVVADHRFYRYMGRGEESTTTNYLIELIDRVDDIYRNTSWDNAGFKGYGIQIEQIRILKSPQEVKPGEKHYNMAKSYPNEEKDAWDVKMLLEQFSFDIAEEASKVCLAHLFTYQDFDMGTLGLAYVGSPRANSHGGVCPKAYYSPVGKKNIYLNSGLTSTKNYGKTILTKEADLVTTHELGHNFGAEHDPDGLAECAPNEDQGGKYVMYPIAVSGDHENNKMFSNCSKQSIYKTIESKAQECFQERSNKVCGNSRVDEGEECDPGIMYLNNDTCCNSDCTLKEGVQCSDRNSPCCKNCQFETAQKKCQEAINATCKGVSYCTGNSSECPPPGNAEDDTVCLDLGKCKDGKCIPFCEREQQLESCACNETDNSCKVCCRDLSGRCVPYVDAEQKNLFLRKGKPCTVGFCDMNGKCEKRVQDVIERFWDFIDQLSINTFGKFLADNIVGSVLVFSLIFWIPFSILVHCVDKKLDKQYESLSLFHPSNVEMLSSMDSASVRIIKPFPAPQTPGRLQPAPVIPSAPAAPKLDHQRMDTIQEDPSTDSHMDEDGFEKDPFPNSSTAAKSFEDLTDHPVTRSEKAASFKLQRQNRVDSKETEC
Sequence of Paired box protein Pax-8 (Q06710 whole entry): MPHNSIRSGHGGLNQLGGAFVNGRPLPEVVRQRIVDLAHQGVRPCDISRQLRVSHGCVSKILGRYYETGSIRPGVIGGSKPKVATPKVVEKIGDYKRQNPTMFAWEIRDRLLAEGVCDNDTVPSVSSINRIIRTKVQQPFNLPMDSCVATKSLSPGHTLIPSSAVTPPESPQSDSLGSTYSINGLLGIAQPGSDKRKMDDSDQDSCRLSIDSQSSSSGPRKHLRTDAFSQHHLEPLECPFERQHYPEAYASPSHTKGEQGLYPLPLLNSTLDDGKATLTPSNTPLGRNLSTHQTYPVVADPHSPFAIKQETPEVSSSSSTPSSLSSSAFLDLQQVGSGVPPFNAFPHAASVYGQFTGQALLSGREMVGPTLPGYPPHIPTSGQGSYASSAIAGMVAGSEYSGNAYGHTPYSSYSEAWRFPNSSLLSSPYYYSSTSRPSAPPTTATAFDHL
Sequence of Mu-type opioid receptor (P35372 whole entry): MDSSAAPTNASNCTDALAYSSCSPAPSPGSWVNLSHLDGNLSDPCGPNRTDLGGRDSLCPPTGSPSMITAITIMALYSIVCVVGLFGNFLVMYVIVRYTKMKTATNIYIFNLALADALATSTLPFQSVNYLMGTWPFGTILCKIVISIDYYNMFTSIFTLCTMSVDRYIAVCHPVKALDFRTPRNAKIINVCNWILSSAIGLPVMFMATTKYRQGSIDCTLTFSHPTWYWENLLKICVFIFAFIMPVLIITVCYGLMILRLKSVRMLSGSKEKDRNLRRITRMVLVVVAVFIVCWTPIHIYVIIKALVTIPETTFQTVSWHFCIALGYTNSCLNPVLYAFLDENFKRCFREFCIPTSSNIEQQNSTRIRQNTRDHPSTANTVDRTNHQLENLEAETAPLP
Sequence of Delta-type opioid receptor (P41143 whole entry): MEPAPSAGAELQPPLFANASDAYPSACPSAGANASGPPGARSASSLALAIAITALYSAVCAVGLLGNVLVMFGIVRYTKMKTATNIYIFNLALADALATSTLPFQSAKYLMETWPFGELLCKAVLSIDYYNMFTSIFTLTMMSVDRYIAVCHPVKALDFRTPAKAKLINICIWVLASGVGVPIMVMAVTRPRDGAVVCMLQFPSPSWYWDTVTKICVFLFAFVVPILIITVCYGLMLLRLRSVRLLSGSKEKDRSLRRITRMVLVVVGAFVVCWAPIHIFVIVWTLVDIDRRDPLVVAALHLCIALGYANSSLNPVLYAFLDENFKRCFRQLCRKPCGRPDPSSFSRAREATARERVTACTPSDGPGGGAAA
Sequence of Induced myeloid leukemia cell differentiation protein Mcl-1 (Q07820 whole entry): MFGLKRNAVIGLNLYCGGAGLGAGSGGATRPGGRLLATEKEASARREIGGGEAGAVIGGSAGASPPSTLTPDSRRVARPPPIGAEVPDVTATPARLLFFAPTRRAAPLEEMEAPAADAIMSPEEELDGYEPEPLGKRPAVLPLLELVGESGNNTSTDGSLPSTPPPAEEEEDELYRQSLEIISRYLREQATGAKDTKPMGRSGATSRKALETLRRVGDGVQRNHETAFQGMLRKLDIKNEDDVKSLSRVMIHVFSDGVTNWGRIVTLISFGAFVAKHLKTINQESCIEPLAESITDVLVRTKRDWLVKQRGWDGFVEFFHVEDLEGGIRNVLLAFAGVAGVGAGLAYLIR
Sequence of 5-hydroxytryptamine receptor 5A (P47898 whole entry): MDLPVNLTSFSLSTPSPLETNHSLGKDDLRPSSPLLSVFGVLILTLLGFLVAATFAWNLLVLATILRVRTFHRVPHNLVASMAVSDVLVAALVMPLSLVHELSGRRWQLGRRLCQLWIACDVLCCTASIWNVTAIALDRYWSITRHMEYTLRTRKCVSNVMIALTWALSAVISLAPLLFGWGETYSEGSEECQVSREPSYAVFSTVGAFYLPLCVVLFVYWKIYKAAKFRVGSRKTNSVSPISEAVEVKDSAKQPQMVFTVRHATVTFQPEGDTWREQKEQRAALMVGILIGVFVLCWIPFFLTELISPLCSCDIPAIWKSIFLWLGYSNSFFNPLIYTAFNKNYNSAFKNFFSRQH

COC(=O)c1ccc(Cn2c(CN3CCOCC3)nc3ccccc3c2=O)o1
IC50 [1]: 17.4 µM (active)

Cc1ccc(S(=O)(=O)N2CCN(CCO)CC2)cc1-c1nnc2c3ccccc3c(C)nn12
IC50 [1]: > 50 µM (active)

COc1ccccc1-n1c(C)cc(/C=C2\C(=N)N3N=C(CC(=O)N4CCOCC4)SC3=NC2=O)c1C
IC50 [1]: 24.1 µM (active) | CC50 [2]: 38.3 µM (active)

O=C(COC(=O)c1cccc(NS(=O)(=O)/C=C/c2ccccc2)c1)Nc1ccccc1OC(F)F
IC50 [3]: 36 µM (inactive) | IC50 [4]: > 69.5 µM (inactive)

Cc1nn(C)cc1CN1CCC(CO)(CCOc2ccccc2)CC1
IC50 [5]: > 50 µM (not active)

Cc1csc(-c2cnn(-c3ccccc3)c2NC(=O)c2ccc(C(F)(F)F)cc2)n1
IC50 [3]: 24.7 µM (inactive) | IC50 [4]: > 69.5 µM (inactive)

O=C(COc1ccccc1C(=O)O)Nc1ccc(SC(F)F)cc1
IC50 [5]: > 50 µM (not active) | EC50 [6]: > 195 µM (not active)

Cc1ccc(C)c(S(=O)(=O)N(C(=O)c2ccncc2)c2ccc(OC(=O)c3ccncc3)cc2)c1
IC50 [7]: > 79 µM (inactive) | AC50 [8]: 4.05 µM (active) | AC50 [9]: > 52 µM (inactive) | AC50 [10]: 1.9 µM (active)

Cc1cc(C)c2c(-n3cccc3)c(C(=O)NNS(=O)(=O)c3ccc(Cl)cc3)sc2n1
IC50 [1]: 40.2 µM (active) | CC50 [2]: 37.1 µM (active)

CC(C)Oc1ccc(N2CC(C(=O)NC3=NCCS3)CC2=O)cc1 (stereo not given)
IC50 [5]: > 50 µM (not active)

COC(=O)c1sc(-c2ccc(Cl)cc2)cc1NC(=O)CSCC(=O)O
IC50 [11]: 83.3 µM (inactive) | IC50 [12]: 18.2 µM (inactive) | IC50 [13]: 22.5 µM (inactive)

Cc1cccc2cc(C(c3nnnn3Cc3ccccc3)N3CCN(C)CC3)c(O)nc12 (stereo not given)
EC50 [14]: > 92.5 µM (inactive) | EC50 [15]: 1.88 µM (active) | EC50 [16]: > 92.5 µM (inactive) | EC50 [17]: > 92.5 µM (inactive)

O=c1cc(-c2ccsc2)oc2cc(-c3ccc4c(c3)OCO4)ccc12
IC50 [18]: 6.19 µM (active)

O=C(Nc1nc(-c2ccco2)c(-c2ccco2)s1)c1ccc(F)cc1F
CC50 [19]: > 40 µM (active)

Cc1nn(C)cc1CNC(=O)C1C2CCC(C2)C1C(=O)O (stereo not given)
CC50 [19]: > 40 µM (active)

CCOC(=O)/C=C1\CN(Cc2ccc(OC)cc2)S(=O)(=O)c2ccccc21
IC50 [3]: > 69.5 µM (inactive) | IC50 [4]: > 69.5 µM (inactive)

C[C@@H]1CN([C@H](C)CO)S(=O)(=O)c2ccc(C#CC3CCCC3)cc2O[C@H]1CN(C)Cc1cccnc1
AC50 [20]: 50.2 µM (active) | AC50 [21]: 12.5 µM (active) | AC50 [22]: 26.2 µM (active)

COc1ccccc1C(=O)Nc1ccc2c(c1)C(=O)N(C)[C@@H]1CC[C@@H](CC(=O)NCc3ccc(Cl)c(Cl)c3)O[C@H]1CO2
AC50 [20]: 55.9 µM (active) | AC50 [21]: 1.57 µM (active) | AC50 [22]: 40.8 µM (active)

O=C(CN1CCN(c2nc(-c3ccccc3)cs2)CC1)Nc1ccc(Cl)c(Cl)c1
IC50 [3]: 37.8 µM (inactive) | IC50 [4]: > 69.6 µM (inactive)

CC(C)c1ccc(S(=O)(=O)/N=C2/C=CC(=O)c3ccccc32)cc1
CC50 [19]: 18.2 µM (active) | IC50 [23]: 3.28 µM (active)

COCc1cn([C@@H]2C[C@@H]3O[C@H](CO)CC[C@@H]3O[C@@H]2CCc2ccc(-c3ccc(OC)cc3)cc2)nn1
AC50 [24]: 0.424 µM (active) | AC50 [25]: 37.4 µM (active) | AC50 [26]: 0.426 µM (active) | AC50 [27]: 0.782 µM (active) | AC50 [28]: 0.571 µM (active)

COc1cccc(C#Cc2ccc([C@H]3[C@@H](CO)N4C(=O)CN(C(=O)c5ccccc5)C[C@H]34)cc2)c1
AC50 [24]: 1.03 µM (active) | AC50 [25]: 22.3 µM (active) | AC50 [26]: 0.398 µM (active) | AC50 [27]: 0.791 µM (active) | AC50 [28]: 0.53 µM (active)
